Here are results for 1 compound from patent publication US20200055848A1, “FURANONE DERIVATES AND METHODS OF USE THEREOF” (CARNA BIOSCIENCES, INC., priority 2016, published 2020).

One data set has as its target GSK3α (Homo sapiens, UniProt P49840). Briefly: Kinase selectivity IC50, GSK3α. It is filed as biochemical. The method, then: (§1) To investigate the representative kinase selectivity of these compounds at physiological ATP levels, compound 13 was screened over a panel of 121 kinases in the presence of 1 mM ATP with preincubation method. […] IC50 values of hit kinases were determined to confirm the selectivity of compound 13.

Data set [1] concerns phosphorylation at Ser53 of MCM2. Briefly: Western blotting of MCM2 phosphorylation in Colo-205 cells. It is filed as cell-based, human. The note with it: 48 h, even at 0.1 μM. The method, then: (§2) FIGS. 3A and 3B illustrate the effects of Cdc7 inhibition by compound 13 in Colo-205 cells. a) Western blot analysis of extracts prepared from Colo-205 cells at 48 h after treatment with DMSO control (0 μM) or compound 13 at indicated concentrations. b) […] analysis of Colo-205 cells treated for 48 h with DMSO control (0 μM) and the indicated concentration of compound 13. DNA content was measured by FACS after propidium iodide staining.
(§3) Human colon adenocarcinoma cell line Colo-205 was obtained from American Type Culture Collection (ATCC, Manassas Va.). Cells were grown in RPMI1640 supplemented with 10% FBS and 1% penicillin/streptomycin at 37° C., 5% CO2 and 95% humidity. Antibodies against Phospho-Histone H2A.X (Ser139) (no. 2577), Cleaved PARP (Asp214) (no. 9541) and MCM2 (no. 3619) were obtained from Cell signaling Technology. […]
(§4) Cells were seeded in T75 flasks (cell density, 2.25×10^6 cells/13.5 mL) and then incubated at 37° C. overnight. […] After washing with cold D-PBS, cells were scraped and lysed using a lysis buffer [RIPA Buffer (×1) containing 1% Phosphatase inhibitor Cocktail 3, 1% Phosphatase inhibitor Cocktail, and 1 mM phenylmethylsulfonyl fluoride], and the obtained samples were analyzed by western blotting. […] Each band was detected by chemiluminescence using a CCD camera (ImageQuant LAS 500, GE healthcare Ltd.).
Background: Immunoblotting shows a protein as a band on a membrane.

A further data set deals with Erk1 (Homo sapiens, UniProt P27361). Description: Kinase selectivity IC50, Erk1. It counts as biochemical. The method, then:
as §1

For the next data set, the system named is phospho-H2AX (γ-H2AX). Briefly: Western blotting of phospho-H2AX in Colo-205 cells. It is filed as cell-based, human. The note with it: 48 h. As to the method:
as §2, §3, §4

Data set [2] can be described thus: Half-life after intravenous administration in mice. Conditions: mouse, in vivo.
Data set [3] concerns Colo-205 cells. Description: Anti-proliferation activity in Colo-205 cells. It is filed as cell-based. Conditions: Homo sapiens, read-out: reduction of cell proliferation IC50.
Another data set has as its target GSK3β (Homo sapiens, UniProt P49841). Description: Kinase selectivity IC50, GSK3β. It counts as biochemical. As to the method:
as §1

For data set [4], the system named is Colo-205 cells. Briefly: Cell cycle analysis (flow cytometry). It is filed as cell-based, human. Conditions: 48 hours, 0.33 and 1 μM. The method, then: as §2
Colo-205 cells (5×10^5) were seeded in six-well plates and treated with different concentrations of a test compound. After 48 h, the cells were harvested and suspended in 0.5 mL of D-PBS. The cells were then fixed by adding 1 mL of ice-cold ethanol, and the samples were kept at −30° C. The cells were resuspended in 200 μL PI solution (20 μg/mL propydium iodide and 100 μg/mL RNaseA of D-PBS), and incubated in the dark for 1 h at room temperature. Cell cycle analyses were performed using FACS Calibur flow cytometer (BD Biosciences).

A further data set concerns the target CLK2 (Homo sapiens, UniProt P49760). Briefly: Kinase selectivity IC50, CLK2. It is filed as biochemical. The method, then: as §1
Another data set addresses p70S6K (Homo sapiens, UniProt P23443). Description: Kinase selectivity IC50, p70S6K. It is filed as biochemical. As to the method:
as §1

The test system of the next data set is cleaved PARP. Description: Western blotting of cleaved PARP in Colo-205 cells. The note with it: 48 h. It is filed as cell-based, human. As to the method: as §2, §3, §4
Another data set deals with CLK1 (Homo sapiens, UniProt P49759). Description: Kinase selectivity IC50, CLK1. It is filed as biochemical. As to the method: as §1
Data set [5] has as its system phosphorylation of MCM2 in Colo-205 cells. Briefly: Recovery of MCM2 phosphorylation after inhibitor washout. It is filed as cell-based, human. The note with it: Colo-205 cells treated 48 hours, then compound-free media. The method, then: Colo-205 cells were treated with or without compounds for 48 h. After inhibitor washout with compound-free media, the cells were lysed at the indicated time and subjected to western blot analysis.
Next, we investigated the recovery of substrate phosphorylation in cells after inhibitor washout to see whether the slow-off rate of inhibitor affects the recovery of phosphorylation. Colo-205 cells were treated for 48 hours with 13, and then, the inhibitor was washed out with compound-free media. The cells were lysed at the indicated time, and the phosphorylation status of MCM2 was analyzed by western blotting.

The mark [6] stands for this setting: 1 mM ATP with preincubation, mean of duplicated assays.

SMILES strings stand for the structures.

GSK3α, sequence (P49840 whole entry): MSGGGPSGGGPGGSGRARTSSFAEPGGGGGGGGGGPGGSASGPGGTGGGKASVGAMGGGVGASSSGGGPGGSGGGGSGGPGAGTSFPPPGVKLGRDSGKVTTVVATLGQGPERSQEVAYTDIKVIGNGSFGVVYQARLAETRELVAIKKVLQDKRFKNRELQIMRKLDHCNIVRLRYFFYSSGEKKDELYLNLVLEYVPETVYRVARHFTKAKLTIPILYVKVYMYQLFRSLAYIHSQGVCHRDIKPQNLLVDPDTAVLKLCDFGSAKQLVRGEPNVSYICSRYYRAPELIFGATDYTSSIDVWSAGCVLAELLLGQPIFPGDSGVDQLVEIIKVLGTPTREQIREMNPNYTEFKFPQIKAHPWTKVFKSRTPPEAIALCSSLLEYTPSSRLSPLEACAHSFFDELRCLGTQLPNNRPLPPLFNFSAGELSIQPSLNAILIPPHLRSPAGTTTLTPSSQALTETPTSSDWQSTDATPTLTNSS
GSK3β, sequence (P49841 whole entry): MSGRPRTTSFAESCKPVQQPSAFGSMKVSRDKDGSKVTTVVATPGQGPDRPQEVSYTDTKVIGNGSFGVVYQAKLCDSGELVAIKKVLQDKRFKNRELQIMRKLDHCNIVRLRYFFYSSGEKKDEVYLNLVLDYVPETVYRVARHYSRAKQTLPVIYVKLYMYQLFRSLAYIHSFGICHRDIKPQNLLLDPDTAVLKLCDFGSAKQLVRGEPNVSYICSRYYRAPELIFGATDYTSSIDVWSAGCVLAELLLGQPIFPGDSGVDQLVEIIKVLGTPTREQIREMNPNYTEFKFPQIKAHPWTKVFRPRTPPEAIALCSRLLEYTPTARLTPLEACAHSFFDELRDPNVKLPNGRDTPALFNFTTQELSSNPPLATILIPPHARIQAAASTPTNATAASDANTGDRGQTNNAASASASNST
CLK1, sequence (P49759 whole entry): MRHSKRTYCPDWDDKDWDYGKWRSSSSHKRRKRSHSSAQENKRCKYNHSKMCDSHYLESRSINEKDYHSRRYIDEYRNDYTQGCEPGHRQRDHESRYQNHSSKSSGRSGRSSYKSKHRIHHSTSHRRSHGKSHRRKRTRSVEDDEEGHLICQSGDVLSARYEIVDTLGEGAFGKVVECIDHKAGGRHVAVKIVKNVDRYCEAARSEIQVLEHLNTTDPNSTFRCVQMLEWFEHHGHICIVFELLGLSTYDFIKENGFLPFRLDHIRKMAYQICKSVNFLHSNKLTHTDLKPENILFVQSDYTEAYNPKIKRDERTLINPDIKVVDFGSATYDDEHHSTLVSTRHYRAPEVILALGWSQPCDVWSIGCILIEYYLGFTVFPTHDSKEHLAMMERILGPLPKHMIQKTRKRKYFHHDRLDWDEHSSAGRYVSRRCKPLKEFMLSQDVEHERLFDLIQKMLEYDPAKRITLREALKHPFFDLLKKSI
CLK2, sequence (P49760 whole entry): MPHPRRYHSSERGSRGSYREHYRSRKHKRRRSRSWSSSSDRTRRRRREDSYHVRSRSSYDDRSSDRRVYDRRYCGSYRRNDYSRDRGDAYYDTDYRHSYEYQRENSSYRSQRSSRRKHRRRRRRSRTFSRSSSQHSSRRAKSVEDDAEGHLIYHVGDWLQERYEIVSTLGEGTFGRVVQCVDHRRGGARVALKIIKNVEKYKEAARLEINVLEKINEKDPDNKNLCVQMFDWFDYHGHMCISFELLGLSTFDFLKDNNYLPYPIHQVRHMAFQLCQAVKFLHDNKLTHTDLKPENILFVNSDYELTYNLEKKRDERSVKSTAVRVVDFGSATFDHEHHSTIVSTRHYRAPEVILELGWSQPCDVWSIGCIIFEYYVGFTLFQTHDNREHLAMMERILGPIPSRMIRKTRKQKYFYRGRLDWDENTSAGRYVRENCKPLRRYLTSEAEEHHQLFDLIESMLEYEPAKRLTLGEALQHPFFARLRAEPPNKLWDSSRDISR
Erk1, sequence (P27361 whole entry): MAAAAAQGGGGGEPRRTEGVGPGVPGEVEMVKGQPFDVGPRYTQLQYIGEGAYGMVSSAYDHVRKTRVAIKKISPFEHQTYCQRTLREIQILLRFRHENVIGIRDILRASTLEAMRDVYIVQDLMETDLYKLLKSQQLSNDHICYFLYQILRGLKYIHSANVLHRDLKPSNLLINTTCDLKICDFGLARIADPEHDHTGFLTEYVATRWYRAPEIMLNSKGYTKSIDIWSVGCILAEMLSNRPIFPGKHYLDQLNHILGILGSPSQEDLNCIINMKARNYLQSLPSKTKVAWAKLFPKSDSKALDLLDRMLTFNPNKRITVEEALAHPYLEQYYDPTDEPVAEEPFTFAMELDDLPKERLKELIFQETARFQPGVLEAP
p70S6K, sequence (P23443 whole entry): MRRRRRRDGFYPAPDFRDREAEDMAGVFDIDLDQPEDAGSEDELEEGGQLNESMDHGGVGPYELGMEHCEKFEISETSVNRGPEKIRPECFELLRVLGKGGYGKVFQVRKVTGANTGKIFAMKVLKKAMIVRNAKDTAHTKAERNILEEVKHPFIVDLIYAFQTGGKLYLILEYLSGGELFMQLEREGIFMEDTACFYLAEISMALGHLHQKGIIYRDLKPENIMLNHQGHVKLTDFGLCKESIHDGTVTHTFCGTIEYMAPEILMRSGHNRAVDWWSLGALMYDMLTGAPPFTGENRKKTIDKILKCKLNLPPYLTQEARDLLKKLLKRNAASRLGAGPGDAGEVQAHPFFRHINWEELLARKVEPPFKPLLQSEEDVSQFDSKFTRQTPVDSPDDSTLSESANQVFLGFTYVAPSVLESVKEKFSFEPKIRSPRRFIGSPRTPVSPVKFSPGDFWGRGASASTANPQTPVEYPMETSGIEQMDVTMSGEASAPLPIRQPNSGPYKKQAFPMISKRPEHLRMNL

By half-life is commonly meant how long it takes for the measured level to halve. High values mean slow decline, low ones rapid decline. Regarding `CCOC(=O)C1=C(Nc2ccccc2Cl)OC(=Cc2c[nH]c3ncccc23)C1=O` [Compound 13, Ethyl 5-((1H-pyrrolo[2,3-b]pyridin-3-yl)methylene)-2-((2-chlorophenyl)amino)-4-oxo-4,5-dihydrofuran-3-carboxylate], the IC50 against GSK3α (setting [6]) worked out at 37 nM; against Erk1 (setting [6]) it was 278 nM; with Colo-205 cells [3], 170 nM; against GSK3β (setting [6]), 51 nM; on CLK2 (setting [6]), 5.3 nM; against p70S6K (setting [6]), 399 nM. The compound also registered an IC50 at CLK1 (setting [6]) of 5 nM. The “Fold selectivity, GSK3α” value on GSK3α (IC50 versus Cdc7) is 61 fold. Moreover, the “inhibition of phosphorylation at Ser53 of MCM2” value in data set [1] was “potently inhibited”. On Erk1 (IC50 versus Cdc7), the “Fold selectivity, Erk1” value is recorded as 463 fold. Besides, the “DNA double strand breaks (phospho-H2AX, γ-H2AX)” value in the data set on phospho-H2AX (γ-H2AX) is on record as “DNA strand breakages were observed”. The same compound had a half-life in data set [2] of 22.8 min. On GSK3β (IC50 versus Cdc7), the “Fold selectivity, GSK3β” value stood at 85 fold. For the same compound, the G1 phase peak entry in the data set with Colo-205 cells [4] is “Marked decreases”. Moreover, the sub-G1 population result with Colo-205 cells [4] is “significant increase”. For the same compound, the “Fold selectivity, CLK2” value on CLK2 (IC50 versus Cdc7) is given as 8.8 fold. The “Fold selectivity, p70S6K” value at p70S6K (IC50 versus Cdc7) worked out at 665 fold. For the same compound, in the data set on cleaved PARP, the “cleaved PARP (apoptosis marker)” value is on record as “Dose-dependent increases”. In addition, on CLK1 (IC50 versus Cdc7), the “Fold selectivity, CLK1” value is on record as 8.3 fold. Moreover, the “phosphorylation of MCM2 after inhibitor washout” value in data set [5] is recorded as “inhibited even 24 hours after washout”.
